The target in this assay is human GLP-1R (Homo sapiens, UniProt P43220, G168S). Put plainly: CHO GLP-1R Clone H6—Assay 1: HTRF cAMP cell-based functional agonist assay (high GLP-1R density). Conditions: for EC50: read-out: Assay 1 EC50, CHO GLP-1R Clone H6, cAMP HTRF, geometric mean; for Emax: read-out: Assay 1 Emax (%), CHO GLP-1R Clone H6.
[1] abbreviates: relative to saturating concentration of full agonist GLP-1 (1 μM), arithmetic mean.

The EC50 is the midpoint of the concentration-response curve. A word on the Emax: it is the greatest response seen or fitted, relative to the assay's reference.

Sequence of human GLP-1R (P43220 24-463 G168S limits assumed): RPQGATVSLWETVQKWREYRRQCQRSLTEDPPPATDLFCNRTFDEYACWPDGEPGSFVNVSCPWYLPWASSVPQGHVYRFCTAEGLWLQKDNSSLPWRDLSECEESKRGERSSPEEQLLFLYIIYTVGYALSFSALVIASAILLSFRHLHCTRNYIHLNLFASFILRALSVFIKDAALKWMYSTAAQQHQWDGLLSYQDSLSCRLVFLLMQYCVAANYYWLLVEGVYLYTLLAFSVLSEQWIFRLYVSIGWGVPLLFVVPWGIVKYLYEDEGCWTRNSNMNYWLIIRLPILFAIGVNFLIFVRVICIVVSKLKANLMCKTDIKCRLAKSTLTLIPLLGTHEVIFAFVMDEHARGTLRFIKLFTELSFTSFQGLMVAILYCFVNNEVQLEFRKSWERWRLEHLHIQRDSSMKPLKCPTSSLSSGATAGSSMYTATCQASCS

Regarding `Cn1c(CN2CCC(c3cccc(OCc4ccc(OC(F)(F)F)cc4)n3)CC2)nc2ccc(C(=O)O)cc21` [Example 9A-09, 1-methyl-2-{[4-(6-{[4-(trifluoromethoxy)benzyl]oxy}pyridin-2-yl)piperidin-1-yl]methyl}-1H-benzimidazole-6-carboxylic acid], the EC50 was determined as 880 nM. In addition, the Emax under setting [1] was found to be 59%. For the compound `Cn1c(CN2CCC(c3cccc(OCc4ccccc4OC(F)(F)F)n3)CC2)nc2ccc(C(=O)O)cc21` [Example 9A-10, 1-methyl-2-{[4-(6-{[2-(trifluoromethoxy)benzyl]oxy}pyridin-2-yl)piperidin-1-yl]methyl}-1H-benzimidazole-6-carboxylic acid], the EC50 was found to be 4500 nM. For the same compound, the Emax under setting [1] came out at 48%. For `Cc1ccccc1COc1cccc(C2CCN(Cc3nc4ccc(C(=O)O)cc4n3C)CC2)n1` [Example 9A-11, 1-methyl-2-[(4-{6-[(2-methylbenzyl)oxy]pyridin-2-yl}piperidin-1-yl)methyl]-1H-benzimidazole-6-carboxylic acid], in that order: 1600 nM and 83%. For `Cn1c(CN2CCC(c3cccc(OCc4cccc(C#N)c4)n3)CC2)nc2ccc(C(=O)O)cc21` [Example 9A-12, 2-[(4-{6-[(3-cyanobenzyl)oxy]pyridin-2-yl}piperidin-1-yl)methyl]-1-methyl-1H-benzimidazole-6-carboxylic acid], in that order: above 17000 nM and 100%. As to `Cn1c(CN2CCC(c3cccc(OCc4ccc(C(F)(F)F)cc4)n3)CC2)nc2ccc(C(=O)O)cc21` [Example 9A-13, 1-methyl-2-{[4-(6-{[4-(trifluoromethyl)benzyl]oxy}pyridin-2-yl)piperidin-1-yl]methyl}-1H-benzimidazole-6-carboxylic acid], the EC50 amounted to 170 nM. Moreover, the maximum response (Emax) under setting [1] was determined as 68%.

As to `Cn1c(CN2CCC(c3cccc(OCc4cc(F)ccc4F)n3)CC2)nc2ccc(C(=O)O)cc21` [Example 9A-14, 2-[(4-{6-[(2,5-difluorobenzyl)oxy]pyridin-2-yl}piperidin-1-yl)methyl]-1-methyl-1H-benzimidazole-6-carboxylic acid], the EC50 amounted to 1800 nM. Under setting [1], the maximal effect (Emax) came out at 93%. In the same order, the values of `CN(C)CCn1c(CN2CCC(c3cccc(OCc4ccc(Cl)cc4F)n3)CC2)nc2ccc(C(=O)O)cc21` [Example 10A-11] are 75 nM and 69%. For the compound `CN1CC(Cn2c(CN3CCC(c4cccc(OCc5ccc(Cl)cc5F)n4)CC3)nc3ccc(C(=O)O)cc32)C1` [Example 10A-19], under setting [1], the Emax was 100%. In the case of `Cc1nnc(CCn2c(CN3CCC(c4cccc(OCc5ccc(Cl)cc5F)n4)CC3)nc3ccc(C(=O)O)cc32)o1` [Example 10A-28], the EC50 came to 190 nM. In addition, the maximal effect (Emax) under setting [1] was determined as 71%. On to `Cc1nnc(Cn2c(CN3CCC(c4cccc(OCc5ccc(Cl)cc5F)n4)CC3)nc3ccc(C(=O)O)cc32)o1` [Example 10A-29], for which the EC50 turned out to be 390 nM. The Emax under setting [1] turned out to be 82%.

With `Cn1cnc(Cn2c(CN3CCC(c4cccc(OCc5ccc(Cl)cc5F)n4)CC3)nc3ccc(C(=O)O)cc32)c1` [Example 10A-30], the EC50 is 550 nM. Also, the maximal response (Emax) under setting [1] came to 71%. Take `Cn1ccnc1Cn1c(CN2CCC(c3cccc(OCc4ccc(Cl)cc4F)n3)CC2)nc2ccc(C(=O)O)cc21` [Example 10A-38]: the EC50 came to 130 nM. Also, the Emax under setting [1] amounted to 72%. Take `CCn1c(CN2CCC(c3cccc(OCc4ccc(Cl)cc4F)n3)CC2)nc2ccc(C(=O)O)cc21` [Example 10A-39]: the EC50 came to 170 nM. In addition, the maximal response (Emax) under setting [1] came to 69%. In the case of `CC(C)n1c(CN2CCC(c3cccc(OCc4ccc(Cl)cc4F)n3)CC2)nc2ccc(C(=O)O)cc21` [Example 10A-40], the concentration for a half-maximal effect (EC50) was found to be 1200 nM. Moreover, for the setting “CHO GLP-1R Clone H6, relative to saturating concentration of full agonist GLP-1 (1 μM), arithmetic mean”, the “Assay 1 Emax (%)” value is 53%. As for `CC(C)(C)n1cnnc1Cn1c(CN2CCC(c3cccc(OCc4ccc(Cl)cc4F)n3)CC2)nc2ccc(C(=O)O)cc21` [Example 10A-46], the 50% effective concentration (EC50) was 1700 nM. Under setting [1], the Emax was found to be 80%.

`C[C@H]1CN(c2cccc(OCc3ccc(C#N)cc3)n2)CCN1Cc1nc2ccc(C(=O)O)cc2n1C[C@@H]1CCO1` [Example 10A-49, 2-{[(2S)-4-{6-[(4-cyanobenzyl)oxy]pyridin-2-yl}-2-methylpiperazin-1-yl]methyl}-1-[(2S)-oxetan-2-ylmethyl]-1H-benzimidazole-6-carboxylic acid]: the concentration for a half-maximal effect (EC50) turned out to be 0.56 nM. Under setting [1], the maximal response (Emax) is 73%. On to `O=C(O)c1ccc2nc(CN3CCC(c4cccc(OCc5ccc(Cl)cc5F)n4)CC3)n(CCO)c2c1` [Example 10A-50], for which the EC50 stood at 290 nM. For the same compound, the maximal response (Emax) under setting [1] came out at 64%. On to `CCc1nc(Cn2c(CN3CCC(c4cccc(OCc5ccc(Cl)cc5F)n4)CC3)nc3ccc(C(=O)O)cc32)no1` [Example 10A-51], for which the EC50 was determined as 390 nM. Further, under setting [1], the Emax was 72%. For `CCc1noc(Cn2c(CN3CCC(c4cccc(OCc5ccc(Cl)cc5F)n4)CC3)nc3ccc(C(=O)O)cc32)n1` [Example 10A-52], in that order: 1300 nM and 79%. For `CC1(Cn2c(CN3CCC(c4cccc(OCc5ccc(Cl)cc5F)n4)CC3)nc3ccc(C(=O)O)cc32)CCO1` (stereo not drawn) [Example 10A-53], in that order: 3.2 nM and 68%. In the same order, the values of `O=C(O)c1ccc2nc(CN3CCC(c4cccc(OCc5ccc(Cl)cc5F)n4)CC3)n(Cc3cnoc3)c2c1` [Example 10A-68] are 140 nM and 76%. Take `O=C(O)c1ccc2nc(CN3CCC(c4cccc(OCc5ccc(Cl)cc5F)n4)CC3)n(Cc3ncon3)c2c1` [Example 10A-70]: the EC50 turned out to be 5 nM. For the same compound, the Emax under setting [1] came to 65%.

Regarding `O=C(O)c1ccc2nc(CN3CCC(c4cccc(OCc5ccc(Cl)cc5F)n4)CC3)n(C[C@H]3CCOC3)c2c1` [Example 10A-72, 2-[(4-{6-[(4-chloro-2-fluorobenzyl)oxy]pyridin-2-yl}piperidin-1-yl)methyl]-1-[(3R)-tetrahydrofuran-3-ylmethyl]-1H-benzimidazole-6-carboxylic acid], the EC50 came out at 3.4 nM. Also, under setting [1], the Emax worked out at 79%. For `CN1CCC1Cn1c(CN2CCC(c3cccc(OCc4ccc(Cl)cc4F)n3)CC2)nc2ccc(C(=O)O)cc21` (stereo not drawn) [Example 10A-79], in that order: 33 nM and 80%. Turning to `Cn1cnc(CCn2c(CN3CCC(c4cccc(OCc5ccc(Cl)cc5F)n4)CC3)nc3ccc(C(=O)O)cc32)c1` [Example 11A-01, 2-[(4-{6-[(4-chloro-2-fluorobenzyl)oxy]pyridin-2-yl}piperidin-1-yl)methyl]-1-[2-(1-methyl-1H-imidazol-4-yl)ethyl]-1H-benzimidazole-6-carboxylic acid], the EC50 was above 10000 nM. Also, the Emax under setting [1] came out at 85%. With `O=C(O)c1ccc2nc(CN3CCC(c4cccc(OCc5ccc(Cl)cc5F)n4)CC3)n(Cc3ccc(Cl)cn3)c2c1` [Example 11A-02, 2-[(4-{6-[(4-chloro-2-fluorobenzyl)oxy]pyridin-2-yl}piperidin-1-yl)methyl]-1-[(5-chloropyridin-2-yl)methyl]-1H-benzimidazole-6-carboxylic acid], the EC50 was above 15000 nM. For the same compound, the maximal effect (Emax) under setting [1] is 100%. In the same order, the values of `CCN1CCC(Cn2c(CN3CCC(c4cccc(OCc5ccc(Cl)cc5F)n4)CC3)nc3ccc(C(=O)O)cc32)C1` (stereo not drawn) [Example 11A-03, 2-[(4-{6-[(4-chloro-2-fluorobenzyl)oxy]pyridin-2-yl}piperidin-1-yl)methyl]-1-[(1-ethylpyrrolidin-3-yl)methyl]-1H-benzimidazole-6-carboxylic acid] are above 16000 nM and 100%. For `CN1CCCC(Cn2c(CN3CCC(c4cccc(OCc5ccc(Cl)cc5F)n4)CC3)nc3ccc(C(=O)O)cc32)C1` (stereo not drawn) [Example 11A-04, 2-[(4-{6-[(4-chloro-2-fluorobenzyl)oxy]pyridin-2-yl}piperidin-1-yl)methyl]-1-[(1-methylpiperidin-3-yl)methyl]-1H-benzimidazole-6-carboxylic acid], in that order: above 19000 nM and 100%.

For `O=C(O)c1ccc2nc(CN3CCC(c4cccc(OCc5ccc(Cl)cc5F)n4)CC3)n(CCC3CCCCO3)c2c1` (stereo not drawn) [Example 11A-05, 2-[(4-{6-[(4-chloro-2-fluorobenzyl)oxy]pyridin-2-yl}piperidin-1-yl)methyl]-1-[2-(tetrahydro-2H-pyran-2-yl)ethyl]-1H-benzimidazole-6-carboxylic acid], the EC50 was above 20000 nM. On the same count and under the same terms, the figure for `CC(C)c1cc(Cn2c(CN3CCC(c4cccc(OCc5ccc(Cl)cc5F)n4)CC3)nc3ccc(C(=O)O)cc32)on1` [Example 11A-06, 2-[(4-{6-[(4-chloro-2-fluorobenzyl)oxy]pyridin-2-yl}piperidin-1-yl)methyl]-1-{[3-(propan-2-yl)-1,2-oxazol-5-yl]methyl}-1H-benzimidazole-6-carboxylic acid] is above 20000 nM. On the same count and under the same terms, the figure for `CN1CCC(CCn2c(CN3CCC(c4cccc(OCc5ccc(Cl)cc5F)n4)CC3)nc3ccc(C(=O)O)cc32)CC1` [Example 11A-07, 2-[(4-{6-[(4-chloro-2-fluorobenzyl)oxy]pyridin-2-yl}piperidin-1-yl)methyl]-1-[2-(1-methylpiperidin-4-yl)ethyl]-1H-benzimidazole-6-carboxylic acid] is above 20000 nM; for `CN1CCC(Cn2c(CN3CCC(c4cccc(OCc5ccc(Cl)cc5F)n4)CC3)nc3ccc(C(=O)O)cc32)CC1` [Example 11A-08, 2-[(4-{6-[(4-chloro-2-fluorobenzyl)oxy]pyridin-2-yl}piperidin-1-yl)methyl]-1-[(1-methylpiperidin-4-yl)methyl]-1H-benzimidazole-6-carboxylic acid] it is above 20000 nM. On to `CN1CCCC1CCn1c(CN2CCC(c3cccc(OCc4ccc(Cl)cc4F)n3)CC2)nc2ccc(C(=O)O)cc21` (stereo not drawn) [Example 11A-09, 2-[(4-{6-[(4-chloro-2-fluorobenzyl)oxy]pyridin-2-yl}piperidin-1-yl)methyl]-1-[2-(1-methylpyrrolidin-2-yl)ethyl]-1H-benzimidazole-6-carboxylic acid], for which the EC50 was above 20000 nM.

(Values after patent US10208019B2, “GLP-1 receptor agonists and uses thereof” (Pfizer Inc., priority 2016, dated 2019).)
